Data taken from patent US7115642B2, “Substituted diphenyl isoxazoles, pyrazoles and oxadiazoles useful for treating HCV infection” (priority 2003, dated 2006).
Read-outs that look alike come from different tables or passages of the source.

Key:
[1] = Cytotoxicity assay (Cell Titer Glo); type: cell-based; details: human; 48 hr with compound, ATP-dependent Cell Titer Glo assay; read-out: IC50 in cytotoxicity assay (number of viable cells)
Experimental: Compounds 67, 167, 169, 13, 1, 145, 29, 119, 63, 31, 39, 103, 123, 121, 97, 129, 79, 111, 85, 89, 109, 127, 131, 95, 47, 57, 69, 165, 161, 163, 3, 137, 15, 141, 41, 53, 33, 113, 93, 105, 77, 91, 81, 83, 35, 27, 65, 7, 135, 51, 139, 51, 49, 143, 5, 149, 11, 37, 21, 45, 61, 75, 23, 125, 73, 43, 171 and 101 were tested in a cytotoxicity assay with liver cells including an HCV replicon (5-2 Luc cells, 9–13 cells or Huh-7 cells). In the assay, cells were seeded onto 96-well plates (approx. 7500 cells/well in a volume of 90 μl) and grown for 24 hr at 37° C. On day 2, various concentrations of test compound (in a volume of 10 μl) were added to the wells and the cells were grown for an additional 48 hr at 37° C. On day 4, an ATP-dependent R-Luciferase assay (Cell Titer Glo assay) was performed to determine the number of viable cells.

[2] = tested on: HCV replicon (5-2 Luc replicon-comprising cells); assay: HCV replicon assay (luciferase); type: cell-based, Hepatitis C virus; details: 5-2 Luc replicon cells, luciferase readout, read-out: Replicon IC50
How it was run: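 Readout: IC50 from a 50% drop in luciferase signal (Bright-Glo, luminometer), scored + (≤10 μM) or − (>10 μM). Compounds added at various concentrations to 5-2 Luc replicon cells (Huh7 background), pre-incubated 24 h, then incubated 24 h more before reading.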

Row | SMILES | IC50 at 48 h [1] | IC50 ([2]; Hepatitis C virus) | IC50 [2]
1 | Cc1c(NC(=O)C(Cl)Cl)cccc1-c1cc(-c2c(Cl)cccc2Cl)no1 [Compound 167, 2,2-Dichloro-N-[3-[3-(2,6-dichlorophenyl)-5-isoxazolyl]-2-methylphenyl]Acetamide] | > 10 µM | > 10 µM | –
2 | O=C(O)c1ccc(Cl)c(-c2cc(-c3cccc(NC(=O)C(Cl)Cl)c3)on2)c1Cl [Compound 139, 2,2-Dichloro-N-[3-[3-(3-carboxy-2,6-dichlorophenyl)-5-isoxazolyl]phenyl]Acetamide] | > 10 µM | > 10 µM | –
3 | O=C(Nc1cccc(-c2cc(-c3ccccc3C3CCCC3)no2)c1)C(Cl)Cl [Compound 129, 2,2-Dichloro-N-[3-[3-(2-cyclopentylphenyl)-5-isoxazolyl]phenyl]Acetamide] | > 10 µM | < 10 µM | –
4 | O=C(Nc1cccc(-c2cc(-c3c(F)cccc3I)no2)c1)C(Cl)Cl [Compound 49, 2,2-Dichloro-N-[3-[3-(2-fluoro-6-iodophenyl)-5-isoxazolyl]phenyl]Acetamide] | > 10 µM | < 10 µM | –
5 | O=C(Nc1cccc(-c2cc(-c3c(Cl)cccc3Cl)no2)c1)C(F)F [Compound 145, 2,2-Difluoro-N-[3-[3-(2,6-dichlorophenyl)-5-isoxazolyl]phenyl]Acetamide] | > 10 µM | > 10 µM | –
6 | O=C(Nc1cccc(-c2cc(-c3c(O)cccc3C(F)(F)F)no2)c1)C(Cl)Cl [Compound 35, 2,2-Dichloro-N-[3-[3-(2-hydroxy-6-trifluoromethylphenyl)-5-isoxazolyl]phenyl]Acetamide] | > 10 µM | < 10 µM | –
7 | O=C(Nc1cccc(-c2cc(-c3cc(C(F)(F)F)ccc3Cl)no2)c1)C(Cl)Cl [Compound 141, 2,2-Dichloro-N-[3-[3-(2-chloro-5-trifluoromethylphenyl)-5-isoxazolyl]phenyl]Acetamide] | > 10 µM | > 10 µM | –
8 | CCCCc1cccc(Cl)c1-c1cc(-c2cccc(NC(=O)C(Cl)Cl)c2)on1 [Compound 103, 2,2-Dichloro-N-[3-[3-(2-chloro-6-n-butylphenyl)-5-isoxazolyl]phenyl]Acetamide] | > 10 µM | < 10 µM | –
9 | O=C(Nc1cccc(-c2cc(-c3c(Cl)cccc3Cl)no2)c1)C(Br)Br [Compound 29, 2,2-Dibromo-N-[3-[3-(2,6-dichlorophenyl)-5-isoxazolyl]phenyl]Acetamide] | > 10 µM | < 10 µM | –
10 | CC(C)c1cccc(C(C)C)c1-c1cc(-c2cccc(NC(=O)C(Cl)Cl)c2)on1 [Compound 121, 2,2-Dichloro-N-[3-[3-(2,6-diisopropylphenyl)-5-isoxazolyl]phenyl]Acetamide] | > 10 µM | < 10 µM | –
11 | O=C(Nc1cccc(-c2cc(-c3ccccc3OCc3ccccc3)no2)c1)C(Cl)Cl [Compound 161, 2,2-Dichloro-N-[3-[3-(2-benzyloxyphenyl)-5-isoxazolyl]phenyl]Acetamide] | > 10 µM | > 10 µM | –
12 | Cc1ccc(F)c(-c2cc(-c3cccc(NC(=O)C(Cl)Cl)c3)on2)c1F [Compound 149, 2,2-Dichloro-N-[3-[3-(2,6-difluoro-3-methylphenyl)-5-isoxazolyl]phenyl]Acetamide] | > 10 µM | > 10 µM | –
13 | CC(C)c1cccc(Cl)c1-c1cc(-c2cccc(NC(=O)C(Cl)Cl)c2)on1 [Compound 39, 2,2-Dichloro-N-[3-[3-(2-chloro-6-isopropylphenyl)-5-isoxazolyl]phenyl]Acetamide] | > 10 µM | < 10 µM | –
14 | O=C(CCl)Nc1cccc(-c2cc(-c3c(Cl)cccc3Cl)no2)c1 [Compound 67, 2-Chloro-N-[3-[3-(2,6-dichlorophenyl)-5-isoxazolyl]phenyl]Acetamide] | > 5 µM | < 10 µM | –
15 | COc1cccc(Cl)c1-c1cc(-c2cccc(NC(=O)C(Cl)Cl)c2)on1 [Compound 81, 2,2-Dichloro-N-[3-[3-(2-chloro-6-methoxyphenyl)-5-isoxazolyl]phenyl]Acetamide] | > 10 µM | < 10 µM | –
16 | O=C(Nc1cccc(-c2cc(-c3c(O)cccc3Cl)no2)c1)C(Cl)Cl [Compound 83, 2,2-Dichloro-N-[3-[3-(2-chloro-6-hydroxyphenyl)-5-isoxazolyl]phenyl]Acetamide] | > 10 µM | < 10 µM | –
17 | COc1ccc(NC(=O)C(Cl)Cl)cc1-c1cc(-c2c(Cl)cccc2Cl)no1 [Compound 127, 2,2-Dichloro-N-[3-[3-(2,6-dichlorophenyl)-5-isoxazolyl]4-methoxyphenyl]Acetamide] | > 10 µM | < 10 µM | –
18 | COc1cccc(F)c1-c1cc(-c2cccc(NC(=O)C(Cl)Cl)c2)on1 [Compound 43, 2,2-Dichloro-N-[3-[3-(2-fluoro-6-methoxyphenyl)-5-isoxazolyl]phenyl]Acetamide] | > 10 µM | < 10 µM | –
19 | Cc1cccc(C(F)(F)F)c1-c1cc(-c2cccc(NC(=O)C(Cl)Cl)c2)on1 [Compound 85, 2,2-Dichloro-N-[3-[3-(2-methyl-6-trifluoromethylphenyl)-5-isoxazolyl]phenyl]Acetamide] | > 10 µM | < 10 µM | –
20 | COc1cccc(C(F)(F)F)c1-c1cc(-c2cccc(NC(=O)C(Cl)Cl)c2)on1 [Compound 77, 2,2-Dichloro-N-[3-[3-(2-methoxy-6-trifluoromethylphenyl)-5-isoxazolyl]phenyl]Acetamide] | > 10 µM | < 10 µM | –

Row | SMILES | IC50 at 48 h [1] | IC50 ([2]; Hepatitis C virus) | IC50 [2]
21 | CN1CCN(c2cccc(C(F)(F)F)c2-c2cc(-c3cccc(NC(=O)C(Cl)Cl)c3)on2)CC1 [Compound 109, 2,2-Dichloro-N-[3-[3-[2-trifluoromethyl-6-(4-methylpiperazino)phenyl]-5-isoxazolyl]-phenyl]Acetamide] | > 10 µM | < 10 µM | –
22 | O=C(Nc1cccc(-c2cc(-c3ccccc3C(F)(F)F)no2)c1)C(Cl)Cl [Compound 33, 2,2-Dichloro-N-[3-[3-(2-trifluoromethylphenyl)-5-isoxazolyl]phenyl]Acetamide] | > 10 µM | < 10 µM | –
23 | Cc1cccc(C)c1-c1cc(-c2cccc(NC(=O)C(Cl)Cl)c2)on1 [Compound 47, 2,2-Dichloro-N-[3-[3-(2,6-dimethylphenyl)-5-isoxazolyl]phenyl]Acetamide] | > 5 µM | < 10 µM | –
24 | O=C(Nc1cccc(-c2cc(-c3c(Cl)cccc3C3CCCC3)no2)c1)C(Cl)Cl [Compound 97, 2,2-Dichloro-N-[3-[3-(2-chloro-6-cyclopentylphenyl)-5-isoxazolyl]phenyl]Acetamide] | > 10 µM | < 10 µM | –
25 | O=C(Nc1cccc(-c2cc(-c3c(Cl)cccc3C3CCCCC3)no2)c1)C(Cl)Cl [Compound 111, 2,2-Dichloro-N-[3-[3-(2-chloro-6-cyclohexylphenyl)-5-isoxazolyl]phenyl]Acetamide] | > 10 µM | < 10 µM | –
26 | O=C(Nc1cccc(-c2cc(-c3c(Cl)cccc3N3CCN(C(=O)c4cccc([N+](=O)[O-])c4)CC3)no2)c1)C(Cl)Cl [Compound 660] | – | – | < 10 µM
27 | O=C(Nc1cccc(-c2cc(-c3c(Cl)cccc3N3CCCN(c4ccccn4)CC3)no2)c1)C(Cl)Cl [Compound 523] | – | – | < 10 µM
28 | O=C(Nc1cccc(-c2cc(-c3c(Cl)cccc3N3CCCCC3)no2)c1)C(Cl)Cl [Compound 503] | – | – | < 10 µM
29 | O=C(NC1CCN(c2cccc(Cl)c2-c2cc(-c3cccc(NC(=O)C(Cl)Cl)c3)on2)CC1)c1cccnc1 [Compound 545] | – | – | < 10 µM
30 | COc1ccc(C(=O)N2CCN(c3cccc(Cl)c3-c3cc(-c4cccc(NC(=O)C(Cl)Cl)c4)on3)CC2)cc1 [Compound 664] | – | – | < 10 µM
31 | Nc1cccc(Cl)c1-c1cc(-c2cccc(NC(=O)C(Cl)Cl)c2)on1 [Compound 542] | – | – | < 10 µM
32 | CN(C)C(=O)N1CCN(c2cccc(Cl)c2-c2cc(-c3cccc(NC(=O)C(Cl)Cl)c3)on2)CC1 [Compound 531] | – | – | < 10 µM
33 | O=C(Nc1cccc(-c2cc(-c3c(Cl)cccc3OC3CCCNC3)no2)c1)C(Cl)Cl (stereo not shown) [Compound 571] | – | – | < 10 µM
34 | COC(=O)c1ccccc1-c1cc(-c2cccc(NC(=O)C(Cl)Cl)c2)on1 [Compound 115, 2,2-Dichloro-N-[3-[3-(2-carbomethoxy)phenyl-5-isoxazolyl]phenyl]Acetamide] | – | – | < 10 µM
35 | O=C(Nc1cccc(-c2cc(-c3ccccc3CO)no2)c1)C(Cl)Cl [Compound 621] | – | – | < 10 µM
36 | O=C(Nc1cccc(-c2cc(-c3c(Cl)cccc3N3CCN(Cc4ccccc4)CC3)no2)c1)C(Cl)Cl [Compound 549] | – | – | < 10 µM
37 | CN(Cc1cccnc1)c1cccc(Cl)c1-c1cc(-c2cccc(NC(=O)C(Cl)Cl)c2)on1 [Compound 635] | – | – | < 10 µM
38 | CN(C)C(=O)NC1CCN(c2cccc(Cl)c2-c2cc(-c3cccc(NC(=O)C(Cl)Cl)c3)on2)C1 (stereo not shown) [Compound 574] | – | – | < 10 µM
39 | COP(=O)(O)Oc1cccc(Cl)c1-c1cc(-c2cccc(NC(=O)C(Cl)Cl)c2)on1 [Compound 607] | – | – | < 10 µM
